Experimental data from ChEMBL document CHEMBL4417631, “Oral peptide inhibitors of interleukin-23 receptor and their use to treat inflammatory bowel diseases” (2017).
Where a SMILES comes first, the peptide text is derived from it. [ ]: non-standard residue; d: D form. The star is where a group is joined. Palmitoyl = CCCCCCCCCCCCCCCC(=O)*; hLeu = CC(C)CC[C@H](N)C(=O)O

Molecular target: T1, Interleukin-23 receptor (Homo sapiens, UniProt Q5VWK5)
T1 sequence (Q5VWK5 whole entry): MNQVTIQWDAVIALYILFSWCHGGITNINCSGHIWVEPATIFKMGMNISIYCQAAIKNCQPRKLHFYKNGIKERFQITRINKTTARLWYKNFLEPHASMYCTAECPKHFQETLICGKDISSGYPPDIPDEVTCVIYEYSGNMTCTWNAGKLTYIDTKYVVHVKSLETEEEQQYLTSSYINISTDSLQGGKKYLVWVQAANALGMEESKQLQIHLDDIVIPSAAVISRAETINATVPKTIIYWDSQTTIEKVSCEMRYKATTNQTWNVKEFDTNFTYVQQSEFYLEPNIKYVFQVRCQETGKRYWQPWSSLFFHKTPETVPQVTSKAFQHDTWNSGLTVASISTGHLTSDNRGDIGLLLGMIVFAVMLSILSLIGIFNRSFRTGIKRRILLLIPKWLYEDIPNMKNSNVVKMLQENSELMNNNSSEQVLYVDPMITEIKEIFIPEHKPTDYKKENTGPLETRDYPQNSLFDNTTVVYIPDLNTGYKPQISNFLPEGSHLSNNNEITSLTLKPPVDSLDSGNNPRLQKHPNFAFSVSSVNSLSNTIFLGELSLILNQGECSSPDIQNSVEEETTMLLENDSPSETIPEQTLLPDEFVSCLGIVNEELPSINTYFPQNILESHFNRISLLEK
Assay: Inhibition of interleukin-23 binding to human interleukin-23 receptor incubated for 2 hrs by competitive binding ELISA

| IC50 [µM] | SMILES |
| --- | --- |
| > 10 | CC(=O)N[C@@H](CS)C(=O)N[C@@H](C)C(=O)N[C@@H](CC(=O)O)C(=O)N[C@@H](Cc1c[nH]c2ccccc12)C(=O)N[C@H](C(=O)N[C@@H](CS)C(=O)N[C@@H](Cc1ccc(O)cc1)C(=O)N[C@@H](Cc1c[nH]c2ccccc12)C(=O)N[C@@H](Cc1cnc[nH]1)C(=O)N[C@@H](CCCCNC(=O)COCC(=O)NCCCC[C@H](NC(=O)[C@H](Cc1cnc[nH]1)NC(=O)[C@H](Cc1c[nH]c2ccccc12)NC(=O)[C@H](Cc1ccc(O)cc1)NC(=O)[C@H](CS)NC(=O)[C@@H](NC(=O)[C@H](Cc1c[nH]c2ccccc12)NC(=O)[C@H](CC(=O)O)NC(=O)[C@H](C)NC(=O)[C@H](CS)NC(C)=O)C(C)C)C(=O)N[C@@H](Cc1ccccc1)C(=O)NCC(=O)O)C(=O)N[C@@H](Cc1ccccc1)C(=O)NCC(=O)O)C(C)C |
| > 10 | CC(=O)N[C@@H](CS)C(=O)N[C@@H](CCC(N)=O)C(=O)N[C@H](C(=O)NCC(=O)N[C@@H](CCC(N)=O)C(=O)N[C@@H](CS)C(=O)N[C@@H](Cc1ccc(O)cc1)C(=O)N[C@@H](Cc1c[nH]c2ccccc12)C(=O)N[C@@H](CCC(C)C)C(=O)N[C@@H](CCC(=O)O)C(=O)N[C@@H](CC(N)=O)C(=O)NCC(N)=O)[C@@H](C)O (Ac-CQTGQCYW[hLeu]ENG-NH2) |
| > 6 | CCCCCCCCCCCCCCCC(=O)NCCCC[C@H](NC(=O)[C@H](CCC(=O)O)NC(=O)[C@H](CC(C)C)NC(=O)[C@H](Cc1c[nH]c2ccccc12)NC(=O)[C@H](Cc1ccc(O)cc1)NC(=O)[C@H](CS)NC(=O)[C@H](CCC(N)=O)NC(=O)[C@H](Cc1c[nH]c2ccccc12)NC(=O)[C@@H](NC(=O)[C@H](CCC(N)=O)NC(=O)[C@H](CS)NC(C)=O)[C@@H](C)O)C(=O)NCC(N)=O (Ac-CQTWQCYWLEK(Palmitoyl)G-NH2) |
| > 1 | CC(C)[C@H](NC(=O)[C@H](Cc1ccc(-c2ccccc2)cc1)NC(=O)[C@H](CC(=O)O)NC(=O)[C@H](C)NC(=O)[C@@H](N)CS)C(=O)N[C@@H](CS)C(=O)N[C@@H](Cc1ccc(O)cc1)C(=O)N[C@@H](Cc1c[nH]c2ccccc12)C(=O)N[C@@H](Cc1cnc[nH]1)C(=O)N[C@H](C(=O)N[C@@H](Cc1ccccc1)C(=O)NCC(N)=O)[C@@H](C)O |

The remaining lines, values behind:

| SMILES | IC50 [µM] |
| --- | --- |
| CC(C)[C@H](NC(=O)[C@H](Cc1c[nH]c2ccccc12)NC(=O)[C@H](CC(=O)O)NC(=O)[C@@H](NC(=O)[C@@H](N)CS)[C@@H](C)O)C(=O)N[C@@H](CS)C(=O)N[C@@H](Cc1ccc(O)cc1)C(=O)N[C@@H](Cc1c[nH]c2ccccc12)C(=O)N[C@@H](Cc1cnc[nH]1)C(=O)N[C@@H](CCC(=O)O)C(=O)N[C@@H](Cc1ccc(O)cc1)C(=O)N[C@@H](CO)C(N)=O (H-CTDWVCYWHEYS-NH2) | > 1 |
| C[C@H](NC(=O)[C@@H](N)CS)C(=O)N[C@@H](CC(=O)O)C(=O)N[C@@H](Cc1c[nH]c2ccccc12)C(=O)N(C)CC(=O)N[C@@H](CS)C(=O)N[C@@H](Cc1ccc(O)cc1)C(=O)N[C@@H](Cc1cccc2ccccc12)C(=O)N[C@@H](Cc1cnc[nH]1)C(=O)N[C@H](C(=O)N[C@@H](Cc1ccccc1)C(=O)O)[C@@H](C)O | > 1 |
| CSCC[C@H](NC(=O)[C@H](CS)NC(=O)[C@H](Cc1cnc[nH]1)NC(=O)[C@@H](NC(=O)[C@H](CO)NC(=O)CNC(C)=O)C(C)C)C(=O)N[C@H](C(=O)N[C@@H](Cc1c[nH]c2ccccc12)C(=O)N[C@@H](CCC(=O)O)C(=O)N[C@@H](CS)C(=O)N[C@@H](Cc1ccc(O)cc1)C(=O)N[C@@H](Cc1c[nH]c2ccccc12)C(=O)N[C@@H](Cc1cnc[nH]1)C(=O)N[C@H](C(=O)N[C@@H](Cc1ccccc1)C(=O)NCC(N)=O)[C@@H](C)O)[C@@H](C)O (Ac-GSVHCMTWECYWHTFG-NH2) | 0.5 to 1 |
| CC(=O)N[C@H](CCCCN)C(=O)N[C@@H](CO)C(=O)N[C@@H](CS)C(=O)N[C@@H](C)C(=O)N[C@@H](CC(=O)O)C(=O)N[C@@H](Cc1c[nH]c2ccccc12)C(=O)N[C@H](C(=O)N[C@@H](CS)C(=O)N[C@@H](Cc1ccc(O)cc1)C(=O)N[C@@H](Cc1c[nH]c2ccccc12)C(=O)N[C@@H](Cc1cnc[nH]1)C(=O)N[C@H](C(=O)N[C@@H](Cc1ccccc1)C(=O)NCC(=O)O)[C@@H](C)O)C(C)C | > 1 |
